Experimental data taken from ChEMBL document CHEMBL1134397, “Synthesis, structure-activity relationships, and pharmacokinetic profiles of nonpeptidic alpha-keto heterocycles as novel inhibitors of human chymase” (J Med Chem, 2001).
Active and inactive are the calls of the source. The calls are words filed in the database; no cut-off is given here. Where a SMILES comes first, the peptide text is derived from it. The star is where a group is joined. CF3 = FC(F)(F)*

Legend:
Chymase [1] = biological target: T1, Chymase (Homo sapiens, UniProt P23946); assay: Inhibitory activity evaluated against chymase from human heart.
T1 sequence (P23946 whole entry): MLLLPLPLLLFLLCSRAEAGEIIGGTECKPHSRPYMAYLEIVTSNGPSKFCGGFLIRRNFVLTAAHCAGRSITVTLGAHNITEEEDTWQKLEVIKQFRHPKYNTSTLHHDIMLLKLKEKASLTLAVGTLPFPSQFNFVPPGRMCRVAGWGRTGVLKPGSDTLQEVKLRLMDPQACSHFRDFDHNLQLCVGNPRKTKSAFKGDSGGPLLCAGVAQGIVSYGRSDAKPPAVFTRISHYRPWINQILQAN

Chymotrypsinogen A = Chymotrypsinogen A (Bos taurus, UniProt P00766); assay: Inhibitory activity against alpha chymotrypsin from bovine pancreas.
Chymase [2] = biological target: T1, Chymase; assay: inhibitory activity was evaluated against chymase from human heart.
[3] = Steady state volume distribution was determined; steady state(ss); format: ADME, organism-based; settings: rat, in vivo
[4] = Pharmacokinetic parameter plasma clearance was determined at when a dose of 1 mg/kg is administered; format: ADME, organism-based; set-up: dose 1 mg/kg; settings: rat
[5] = Pharmacokinetic parameter AUC was determined when a dose of 1 mg/kg was administered intravenously; format: ADME, organism-based; set-up: dose 1 mg/kg, route intravenous; settings: rat, in vivo, iv
[6] = biological target: Prothrombin (Homo sapiens) (UniProt P00734); assay: inhibitory activity against human plasma thrombin (10 uM); No inhibition; format: cell-free
Chymase [7] = biological target: T1, Chymase
[8] = Pharmacokinetic parameter AUC was determined when a dose of 1 mg/kg was administered orally; format: ADME, organism-based; set-up: dose 1 mg/kg, route oral; settings: rat, in vivo, po
Mast cell protease 9 = biological target: T2, Mast cell protease 9 (Mus musculus, UniProt O35164); assay: Inhibitory activity against mouse peritoneal chymase
T2 sequence (O35164 whole entry): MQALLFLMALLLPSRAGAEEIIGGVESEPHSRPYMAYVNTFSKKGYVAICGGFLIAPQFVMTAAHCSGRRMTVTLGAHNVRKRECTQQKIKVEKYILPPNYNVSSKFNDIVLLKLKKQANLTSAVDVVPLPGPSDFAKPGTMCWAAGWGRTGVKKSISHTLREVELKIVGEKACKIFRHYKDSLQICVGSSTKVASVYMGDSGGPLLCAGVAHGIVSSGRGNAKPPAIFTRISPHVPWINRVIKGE

Chymase [9] = biological target: T3, Chymase (Rattus norvegicus, UniProt P50339); assay: Inhibitory activity against rat peritoneal chymase
T3 sequence (P50339 whole entry): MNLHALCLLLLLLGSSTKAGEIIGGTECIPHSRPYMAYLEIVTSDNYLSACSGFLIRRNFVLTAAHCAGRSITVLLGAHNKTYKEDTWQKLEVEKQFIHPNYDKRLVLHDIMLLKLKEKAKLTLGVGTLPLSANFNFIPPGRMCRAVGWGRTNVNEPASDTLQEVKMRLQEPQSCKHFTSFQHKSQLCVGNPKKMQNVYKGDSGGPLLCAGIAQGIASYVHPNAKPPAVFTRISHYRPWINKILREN

[10] = Maximum plasma concentration was measured when a dose of 1 mg/kg is administered orally; format: ADME, organism-based; set-up: dose 1 mg/kg, route oral; settings: rat, po
[11] = Oral Bioavailability was determined; format: ADME, organism-based; settings: rat, in vivo, read-out: BA
[12] = biological target: T4, Neutrophil elastase (Homo sapiens) (UniProt P08246); assay: Inhibitory activity against human leukocyte elastase (10 uM); No inhibition
T4 sequence (whole entry): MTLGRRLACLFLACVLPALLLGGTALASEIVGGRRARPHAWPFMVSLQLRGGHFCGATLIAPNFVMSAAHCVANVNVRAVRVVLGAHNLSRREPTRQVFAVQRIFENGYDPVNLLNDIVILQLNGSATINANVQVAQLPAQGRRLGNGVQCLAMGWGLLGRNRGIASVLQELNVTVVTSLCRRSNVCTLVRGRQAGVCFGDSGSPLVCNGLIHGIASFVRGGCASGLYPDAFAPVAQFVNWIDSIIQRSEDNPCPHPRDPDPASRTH

[13] = Time to reach Cmax when a dose of 1 mg/kg is administered orally; format: ADME, organism-based; set-up: dose 1 mg/kg, route oral; settings: rat, in vivo, po
[14] = biological target: Angiotensin-converting enzyme (Homo sapiens) (UniProt P12821); assay: Inhibitory activity against human angiotensin I converting enzyme (10 uM); No inhibition
[15] = Half life was evaluated when a dose of 1 mg/kg was administered intravenously to rats; format: ADME, organism-based; set-up: dose 1 mg/kg, route intravenous; settings: rat, in vivo, iv
[16] = biological target: Prothrombin (Homo sapiens) (UniProt P00734); assay: Inhibitory activity against human plasma thrombin (10 uM); No inhibition; format: cell-free
Cathepsin G = biological target: T5, Cathepsin G (Homo sapiens, UniProt P08311); assay: Inhibitory activity against human cathepsin G
T5 sequence (P08311 whole entry): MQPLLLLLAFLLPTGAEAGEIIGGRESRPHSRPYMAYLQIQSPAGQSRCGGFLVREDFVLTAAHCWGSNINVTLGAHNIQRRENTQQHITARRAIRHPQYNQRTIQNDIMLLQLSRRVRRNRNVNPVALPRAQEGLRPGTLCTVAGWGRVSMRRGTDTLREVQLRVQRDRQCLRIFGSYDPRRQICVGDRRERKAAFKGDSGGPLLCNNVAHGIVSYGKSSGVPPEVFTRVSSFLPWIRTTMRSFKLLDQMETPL

Chain of Angiotensin-converting enzyme (Homo sapiens) (P12821 whole entry): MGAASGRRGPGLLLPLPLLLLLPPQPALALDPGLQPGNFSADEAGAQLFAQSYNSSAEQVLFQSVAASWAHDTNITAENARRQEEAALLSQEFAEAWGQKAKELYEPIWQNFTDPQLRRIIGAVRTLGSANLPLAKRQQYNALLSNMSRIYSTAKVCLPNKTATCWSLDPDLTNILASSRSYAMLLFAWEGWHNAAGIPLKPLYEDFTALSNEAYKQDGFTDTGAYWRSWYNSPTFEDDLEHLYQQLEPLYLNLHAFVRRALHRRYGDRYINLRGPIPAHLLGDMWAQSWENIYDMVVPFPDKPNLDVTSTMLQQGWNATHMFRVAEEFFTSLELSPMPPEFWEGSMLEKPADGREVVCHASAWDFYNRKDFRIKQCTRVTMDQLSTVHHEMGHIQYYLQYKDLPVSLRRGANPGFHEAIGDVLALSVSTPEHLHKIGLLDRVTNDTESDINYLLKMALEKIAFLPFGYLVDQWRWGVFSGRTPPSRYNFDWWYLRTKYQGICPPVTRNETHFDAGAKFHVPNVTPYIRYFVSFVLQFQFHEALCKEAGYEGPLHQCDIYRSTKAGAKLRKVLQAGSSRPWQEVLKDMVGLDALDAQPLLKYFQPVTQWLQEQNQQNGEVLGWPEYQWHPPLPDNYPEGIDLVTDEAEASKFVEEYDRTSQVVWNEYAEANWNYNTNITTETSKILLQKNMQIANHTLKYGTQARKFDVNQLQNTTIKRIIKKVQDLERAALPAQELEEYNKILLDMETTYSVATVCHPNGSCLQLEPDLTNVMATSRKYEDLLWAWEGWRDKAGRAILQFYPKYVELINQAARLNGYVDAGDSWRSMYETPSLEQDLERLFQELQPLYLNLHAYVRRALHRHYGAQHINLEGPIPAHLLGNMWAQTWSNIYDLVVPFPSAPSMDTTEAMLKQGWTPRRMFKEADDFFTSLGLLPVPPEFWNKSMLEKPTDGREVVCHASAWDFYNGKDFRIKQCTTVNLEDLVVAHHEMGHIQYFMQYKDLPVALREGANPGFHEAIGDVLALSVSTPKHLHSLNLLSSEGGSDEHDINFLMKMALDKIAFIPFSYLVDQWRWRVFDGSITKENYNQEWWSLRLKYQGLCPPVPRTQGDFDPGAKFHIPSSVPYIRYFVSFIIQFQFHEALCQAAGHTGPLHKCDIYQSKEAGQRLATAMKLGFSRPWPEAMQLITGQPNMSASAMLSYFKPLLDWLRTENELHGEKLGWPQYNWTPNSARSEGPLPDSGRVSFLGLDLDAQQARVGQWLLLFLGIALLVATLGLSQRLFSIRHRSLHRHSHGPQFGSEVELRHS

| Structure (SMILES) | Ki (Chymase [1]) | Ki (Chymotrypsinogen A) | also measured |
| --- | --- | --- | --- |
| COC(=O)c1ccc2oc(C(=O)C(Cc3ccccc3)NC(=O)Cn3c(-c4cccc(Cl)c4)ncc(N)c3=O)nc2c1 (stereo not drawn) | 26.1 nM | 3820 nM |  |
| COC(=O)c1ccc2oc(C(=O)C(Cc3ccccc3)NC(=O)Cn3c(-c4ccncc4)ncc(N)c3=O)nc2c1 (stereo not drawn) | 43.5 nM | 467 nM |  |
| Nc1cnc(-c2ccc(F)cc2)n(CC(=O)NC(Cc2ccccc2)C(=O)c2nc3cc(C(=O)O)ccc3o2)c1=O (stereo not drawn) |  | 133 nM |  |
| Nc1cnc(-c2ccc(F)cc2)n(CC(=O)NC(Cc2ccccc2)C(=O)c2nc3cc(F)ccc3o2)c1=O (stereo not drawn) |  | 65.1 nM |  |
| CCN(CC)C(=O)c1ccc2oc(C(=O)C(Cc3ccccc3)NC(=O)Cn3c(-c4ccc(F)cc4)ncc(N)c3=O)nc2c1 (stereo not drawn) | 59.5 nM | 23.3 nM |  |
| COC(=O)c1ccc2oc(C(=O)C(Cc3ccccc3)NC(=O)Cn3c(-c4cccc(N)c4)ncc(N)c3=O)nc2c1 (stereo not drawn) | 5.6 nM | 855 nM |  |
| CC(C)C[C@H](NC(=O)[C@@H](NC(=O)N[C@@H](Cc1ccccc1)C(=O)O)C1CCN=C(N)N1)C(=O)N[C@H](C=O)Cc1ccccc1 (stereo partly drawn) [CHYMOSTATIN] |  |  | Ki (Chymase [2]): 13.1 nM |
| COC(=O)c1ccc2oc(C(=O)C(Cc3ccccc3)NC(=O)Cn3c(-c4cccc(OC)c4)ncc(N)c3=O)nc2c1 (stereo not drawn) | 4.85 nM | 943 nM | Vd [3]: 0.469 L/kg; clearance [4]: 0.168 mL/min/kg; AUC [5]: 108000 ng·h/mL; NA [6]: inactive; Ki (Chymase [7]): 1.12 nM; AUC [8]: 20800 ng·h/mL; Ki (Mast cell protease 9): 63.9 nM; Ki (Chymase [9]): 86.6 nM; Cmax [10]: 396 ng/mL; bioavailability [11]: 19.3%; NA [12]: inactive; Tmax [13]: 6 h; NA [14]: inactive; half-life [15]: 35.7 h |
| Nc1cnc(-c2ccc(F)cc2)n(CC(=O)NC(Cc2ccccc2)C(=O)c2nc3cc(O)ccc3o2)c1=O (stereo not drawn) | 2120 nM | 2230 nM |  |
| COC(=O)c1ccc2oc(C(=O)C(Cc3ccccc3)NC(=O)Cn3c(-c4cccc(C)c4)ncc(N)c3=O)nc2c1 (stereo not drawn) | 44.2 nM | 47.7 nM |  |
| COC(=O)c1ccc2oc(C(=O)C(Cc3ccccc3)NC(=O)Cn3c(-c4cccnc4)ncc(N)c3=O)nc2c1 (stereo not drawn) |  | 45.1 nM | Ki (Chymase [2]): 77.4 nM |
| COC(=O)c1ccc2oc(C(=O)C(Cc3ccccc3)NC(=O)Cn3c(-c4cccc(F)c4)ncc(N)c3=O)nc2c1 (stereo not drawn) | 14.3 nM | 1770 nM |  |
| Nc1cnc(-c2ccc(F)cc2)n(CC(=O)NC(Cc2ccccc2)C(=O)c2nc3cc(-c4ccccc4)ccc3o2)c1=O (stereo not drawn) |  |  | Ki (Chymase [2]): 174 nM |
| COC(=O)c1ccc2nc(C(=O)C(Cc3ccccc3)NC(=O)Cn3c(-c4ccc(F)cc4)ncc(N)c3=O)oc2c1 (stereo not drawn) |  | 71.3 nM |  |
| CCOC(=O)c1ccc2oc(C(=O)C(Cc3ccccc3)NC(=O)Cn3c(-c4ccc(F)cc4)ncc(N)c3=O)nc2c1 (stereo not drawn) | 30 nM | 477 nM |  |
| CC(C)[C@H](N)C(=O)N1CCC[C@H]1C(=O)N[C@@H](Cc1ccccc1)C(=O)C(F)(F)F (H-Val-Pro-Phe-CF3) | 82.1 nM | 4400 nM |  |
| COC(=O)c1ccc2oc(C(=O)C(Cc3ccccc3)NC(=O)Cn3c(-c4cccc([N+](=O)[O-])c4)ncc(N)c3=O)nc2c1 (stereo not drawn) |  | 11500 nM |  |
| COC(=O)c1ccc2oc(C(=O)C(Cc3ccccc3)NC(=O)Cn3c(-c4ccc(F)cc4)ncc(N)c3=O)nc2c1 (stereo not drawn) | 22.6 nM | 52.9 nM | Ki (Chymase [7]): 3.68 nM; NA [16]: inactive; Ki (Cathepsin G): 720 nM; Ki (Mast cell protease 9): 40.4 nM; Ki (Chymase [9]): 103 nM; NA [12]: inactive; NA [14]: inactive |
| NC(=O)c1ccc2oc(C(=O)C(Cc3ccccc3)NC(=O)Cn3c(-c4ccc(F)cc4)ncc(N)c3=O)nc2c1 (stereo not drawn) | 94 nM | 53.4 nM |  |
| CCNC(=O)c1ccc2oc(C(=O)C(Cc3ccccc3)NC(=O)Cn3c(-c4ccc(F)cc4)ncc(N)c3=O)nc2c1 (stereo not drawn) | 68.6 nM | 32.6 nM |  |
| Nc1ccc2oc(C(=O)C(Cc3ccccc3)NC(=O)Cn3c(-c4ccc(F)cc4)ncc(N)c3=O)nc2c1 (stereo not drawn) |  | 60 nM |  |
| Nc1cnc(-c2ccc(F)cc2)n(CC(=O)NC(Cc2ccccc2)C(=O)c2nc3ncccc3o2)c1=O (stereo not drawn) | 60.6 nM | 60.5 nM |  |
